In US20070248570A1, “Pharmaceutical Compositions Containing Platinum Complexes with Secondary Xanthates and Therapeutic Uses Thereof” (priority 2003, published 2007):

Legend:
[1] = system: SK-OV3; test: Cytotoxicity on human cancer cells in tissue culture, crystal violet staining; type: cell-based
Experimental: (§1) The anti-tumoral activity of compounds was determined in tissue culture media of pH of 6.8 and 7.4. Cells were incubated for 2 h with the test compounds, followed by 24-96 h incubation with regular, inhibitor free medium of pH 7.4. The substances were serially diluted in tissue culture medium of the desired pH. After incubation, surviving cells were stained with crystal violet and the optical density was measured in an ELISA reader.

[2] = system: Calu-6; test: as above; type: cell-based
Experimental: as §1

[3] = system: LXF-289; test: as above; type: cell-based
Experimental: as §1

[4] = system: KB; test: as above; type: cell-based
Experimental: as §1

[5] = system: MCF-7; test: as above; type: cell-based
Experimental: as §1

[6] = system: SK-MEL-25; test: as above; type: cell-based
Experimental: as §1

[7] = system: six human tumor cell lines; test: Cytotoxic activity in a panel of six human tumor lines (comparisons and pH quotient); type: cell-based; conditions: mean ± SD over the human tumor cell lines tested
Experimental: FIG. 2: Mean quotient of IC50 at pH 7.4/IC50 at pH 6.8 Mean values ±SD of IC50 at pH 7.4/IC50 at pH 6.8 for all six human tumor cell lines tested. IC50at both pH conditions were obtained for four cell lines.
Calu-6 (adenocarcinoma, lung), SK-MEL-25 (melanoma), MCF-7 (mamma carcinoma), LXF-289 (adenocarcinoma, lung), SK-OV -3 (adenocarcinoma, ovary), KB (squameous cell carcinoma, head and neck) were obtained from ATCC and were cultivated according to the instructions of the supplier at 37° C., 5% CO2 atmosphere and 100% relative humidity.
as §1, with “reader. The concentration which was needed to reduce the cell number by 50% (IC50) was determined from dose-response curves for each compound.” for “reader.”

[8] = system: tumor cells; conditions: cited from earlier work
[9] = system: human tumors xenotransplanted in nude mice; conditions: cited from earlier work
[10] = SK-0V-3, pH 6.8, 2 h incubation, mean of four assays
[11] = SK-0V-3, pH 7.4, 2 h incubation, mean of four assays
[12] = Calu-6, pH 6.8, 2 h incubation, mean of four assays
[13] = Calu-6, pH 7.4, 2 h incubation, mean of four assays
[14] = LXF-289, pH 6.8, 2 h incubation, mean of four assays
[15] = LXF-289, pH 7.4, 2 h incubation, mean of four assays
[16] = KB, pH 6.8, 2 h incubation, mean of four assays
[17] = KB, pH 7.4, 2 h incubation, mean of four assays
[18] = MCF-7, pH 6.8, 2 h incubation, mean of four assays
[19] = MCF-7, pH 7.4, 2 h incubation, mean of four assays
[20] = SK-MEL-25, pH 6.8, 2 h incubation, mean of four assays
[21] = SK-MEL-25, pH 7.4, 2 h incubation, mean of four assays

Molecule	IC50 [1, 10] [µM]	IC50 [1, 11] [µM]	IC50 [2, 12] [µM]	IC50 [2, 13] [µM]	IC50 [3, 14] [µM]	IC50 [3, 15] [µM]	IC50 [4, 16] [µM]	IC50 [4, 17] [µM]	IC50 [5, 18] [µM]	IC50 [5, 19] [µM]	IC50 [6, 20] [µM]	IC50 [6, 21] [µM]	other results
N.N.[Cl][Pt][Cl] [Cisplatin, cis-dichloro-diammine-platinum(II)]	64 ± 0.7	90 ± 2.77	16 ± 1	25 ± 5.7	113 ± 22.3	83 ± 23	55 ± 2	52 ± 3.3	108 ± 27	160 ± 30	78 ± 3.3	90 ± 25	–
CC(C)OC(=S)[S][Pt][S]C(=S)OC(C)C [Compound 15, Bis(O-isopropyl-dithiocarbonato)platinum(II)]	14 ± 2.1	33 ± 8	6 ± 0.6	10 ± 0.6	10 ± 1.7	30 ± 0.4	6 ± 0.4	10 ± 0.9	3 ± 0.9	7 ± 3	6 ± 0.4	12 ± 1.5	Mean quotient of IC50 at pH 7.4/IC50 at pH 6.8 [7]: 2.18±0.49
COC(=S)[S][Pt][S]C(=S)OC [r1, Bis(O-methyl-dithiocarbonato)platinum (II)]	–	–	–	–	–	–	–	–	–	–	–	–	IC50 ([1]; pH 6.8): 26 ± 2.4 µM; IC50 ([1]; pH 7.4): 47 ± 2.9 µM; IC50 ([2]; pH 6.8): 11 ± 2.9 µM; IC50 ([2]; pH 7.4): 21 ± 5.6 µM; IC50 ([3]; pH 6.8): 39 ± 9.5 µM; IC50 ([3]; pH 7.4): 102 ± 19.3 µM; IC50 ([4]; pH 6.8): 20 ± 1 µM; IC50 ([4]; pH 7.4): 49 ± 2 µM; IC50 ([5]; pH 6.8): 7 ± 1 µM; IC50 ([5]; pH 7.4): 19 ± 4.4 µM; IC50 ([6]; pH 6.8): 14 ± 5 µM; IC50 ([6]; pH 7.4): 80 ± 25.9 µM
CCOC(=S)[S][Pt][S]C(=S)OCC [r2, Bis(O-ethyl-dithiocarbonato)platinum(II)]	86 ± 3.2	98 ± 16.5	21 ± 3.9	24 ± 0.9	45 ± 8	91 ± 24.9	18 ± 4	58 ± 5	12 ± 0.2	47 ± 5.3	21 ± 3	56 ± 6.2	cytotoxicity in media of pH 6.8 as compared to pH 7.4 [8]: significantly higher cytotoxicity; toxicity on kidneys, small intestines and white blood cell count ([9]; mouse, in vivo): significantly lower toxicity; anti-tumoral activity on human tumors xenotransplanted in nude mice ([9]; versus cisplatin): comparable to cisplatin
Bis(O-cyclobutyl-dithiocarbonato)platinum(II) [Compound 18]	17 ± 2.9	19 ± 4.1	3 ± 0.4	7 ± 1.2	37 ± 1.4	44 ± 0.8	6 ± 0.6	20 ± 2.9	11 ± 0.8	21 ± 1	7 ± 1	12 ± 3.7	–
Bis(O-propyl-dithiocarbonato)platinum(II) [r3]	45 ± 27	50 ± 1	7 ± 1.1	21 ± 0.9	37 ± 9	49 ± 5	12 ± 1	38 ± 3	4 ± 1	9 ± 3	10 ± 1.5	21 ± 1.9	–
